Data from patent US11459337B2, “Isothiazolo[5,4-D]pyrimidine compound as IRAK4 inhibitor” (priority 2018, dated 2022).
Read-outs that look alike come from different tables or passages of the source. One block for each molecule: values may come before it.

Legend:
[1] = Pharmacokinetic study of oral and intravenous test compounds in SD rats; type: in vivo; settings: rat, plasma, SD male rats; for Vd: read-out: Apparent volume of distribution Vdss; for AUC(0-t): read-out: Area under plasma concentration-time curve AUC0-last; for clearance: read-out: Clearance CL; for half-life: read-out: Half life T1/2 (converted); for bioavailability: read-out: Bioavailability F; for Cmax: read-out: Peak concentration Cmax; for Tmax: read-out: Time to peak Tmax
Procedure: Pharmacokinetic Study of Oral and Intravenous Test Compounds in SD Rats The test compound was mixed with a solution containing 10% of methyl pyrrolidone, 10% of polyethylene glycol stearate and 80% of water. The mixture was vortexed and sonicated to prepare a 1.5 mg/mL clarified solution, which was then filtered through a microporous membrane for later use. SD male rats aged 7 to 10 weeks were selected and administered intravenously with a dose of the candidate compound at 3 mg/kg. The test compound was mixed with 0.5% aqueous methylcellulose solution. The mixture was vortexed and sonicated to prepare a 2 mg/mL suspension for later use. SD male rats aged 7 to 10 weeks were selected and orally administered with a dose of the candidate compound at 10 mg/kg. Whole blood was collected at certain time points, and plasma was separated. The drug concentration was measured by LC-MS/MS, and pharmacokinetic parameters were calculated using Phoenix WinNonlin software (Pharsight, USA).

THP-1 cells = experiment: TNF-α ELISA assay in LPS-stimulated THP-1 cells; type: cell-based, human; settings: TNF-α in supernatant, 150 ng/mL LPS
Procedure: TNF-α ELISA Assay in THP-1 Cells THP-1 human acute unicellular leukemia cells were purchased from ATCC (Cat #TIB-202) and incubated in a 37° C., 5% CO2 incubator. The medium was RPMI1640 (Gibco, Cat #22400-105), the supplementary was 10% FBS (Gibco, Cat #10091148); 1% PenStrep (Gibco, Cat #15140); 0.05 mM 2-mercaptoethanol (Sigma, Cat #M6250). TNF-α content in the culture supernatant was measured by a TNF-α Elisa kit. TNF-α was produced by stimulation of THP-1 cells with 150 ng/mL LPS (Sigma, Cat #L6529). Normal THP-1 cells in logarithmic phase were inoculated in 96-well plates (Corning #3599) at a certain concentration (1×10^5/100 μL) and then incubated in an incubator. After two hours, 16.7 μL of test compound of different concentrations (8×final concentration) was added and the mixture was incubated. After one hour, 16.7 μL of 1200 ng/mL LPS was added and the mixture was incubated. After 18 hours, the culture was centrifuged and the supernatant was collected. The TNF-α content was measured by a TNF-α Elisa kit. Finally, the OD signals (OD450-OD570) were read on an envision plate reader. The OD450-OD570 signals were converted to percent inhibition. Inhibition %=(ZPE−sample)/(ZPE−HPE)×100. “HPE” represents the OD450-OD570 signal value of the control without LPS-stimulated cells, and “ZPE” represents the OD450-OD570 signal value of the control with LPS-stimulated cells. IC50 values for compounds were calculated by XLFit in the Excel. Y=Bottom+(Top−Bottom)/(1+(IC50/X)^HillSlope). Equation: […]

human IRAK4 = human IRAK4 (Homo sapiens (Human), UniProt Q9NWZ3); experiment: 33P-labeled kinase activity assay (Reaction Biology Corp), in vitro enzymatic activity; type: biochemical; settings: 20 μM ATP, 3 nM kinase, MBP substrate
human IRAK4, sequence (Q9NWZ3 whole entry): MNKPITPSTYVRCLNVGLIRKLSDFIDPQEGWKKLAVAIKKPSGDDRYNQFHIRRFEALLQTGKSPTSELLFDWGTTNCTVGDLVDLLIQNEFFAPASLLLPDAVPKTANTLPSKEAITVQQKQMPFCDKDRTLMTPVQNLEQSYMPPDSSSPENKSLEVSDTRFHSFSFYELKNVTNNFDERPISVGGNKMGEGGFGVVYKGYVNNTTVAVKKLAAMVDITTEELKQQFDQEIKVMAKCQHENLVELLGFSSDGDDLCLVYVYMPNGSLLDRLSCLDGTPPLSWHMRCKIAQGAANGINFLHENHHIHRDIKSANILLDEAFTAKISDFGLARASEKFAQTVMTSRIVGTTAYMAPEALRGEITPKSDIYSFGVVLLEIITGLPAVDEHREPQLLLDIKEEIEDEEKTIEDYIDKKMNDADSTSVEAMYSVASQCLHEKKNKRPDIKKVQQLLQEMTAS
Procedure: The inhibitory activity of the test compounds against human IRAK4 was evaluated by measuring IC50 values in a ^33P-labeled kinase activity assay (Reaction Biology Corp). Buffer conditions: 20 mM Hepes (pH 7.5), 10 mM MgCl2, 1 mM EGTA, 0.02% Brij35, 0.02 mg/mL BSA, 0.1 mM Na3VO4, 2 mM DTT, 1% DMSO. Procedures: The test compound was dissolved in DMSO at room temperature to prepare a 10 mM solution for later use. The substrate was dissolved in fresh buffer, to which the kinase was added and mixed well. The DMSO solution containing the test compound was added to the above mixed reaction system by an acoustic technique (Echo 550). The concentrations of the compounds in reaction system were 10 μM, 3.33 μM, 1.11 μM, 0.370 μM, 0.123 μM, 41.2 nM, 13.7 nM, 4.57 nM, 1.52 nM, and 0.508 nM. After 15 minutes of incubation, the reaction was started by adding ^33P-ATP (activity: 0.01 μCi/μL; the corresponding concentration is listed in Table 1). Supplier's catalog number, lot number and concentration information in the reaction system for IRAK4 and its substrate are listed in Table 1. After 120 minutes of reaction at room temperature, the resulting solution was loaded on P81 ion exchange chromatography paper sheet (Whatman #3698-915). After repeated washing with 0.75% phosphoric acid solution, the radioactivity of the phosphorylated substrate residue on the paper sheet was measured. The kinase activity data are shown as a comparison of the kinase activity of the test compound and the kinase activity of the blank (DMSO only) and a curve was fitted using Prism4 software (GraphPad) to give IC50 values, with the experimental results shown in Table 2. [table]

[2] = tested on: LPS-induced TNF-α secretion; experiment: Pharmacodynamic study evaluating LPS-induced TNF-α secretion in SD rats; type: in vivo; settings: FIG. 2, oral, 20 mpk
Procedure: Pharmacodynamic Study Evaluating […] (LPS)-Induced TNF-α Secretion in SD Rats SD rats were orally administered with a solvent, dexamethasone (DEX, 0.5 mg/kg) as positive control, and the test compound, and were intraperitoneally injected with LPS (1 mg/kg) 0.5 hours after the administration Animals were euthanized with CO2 2 hours after LPS injection. Cardiac blood was collected into EDTA-K2 vacutainers, and a part of the anticoagulated blood was centrifuged and the plasma was frozen at −80° C. Frozen plasma was thawed at room temperature and the concentration of TNF-α in the plasma was measured using ELISA kit. The experimental data were expressed using mean±SEM, and TNF-α levels were analyzed by One-way ANOVA. Significant differences were considered for p<0.05.

SMILES: Cc1nsc2nc(Nc3cnn([C@H]4CCOC4)c3)nc(N[C@H]3CC[C@H](N4CCOCC4)CC3)c12 [WX006]
- IC50 (THP-1 cells; Homo sapiens, THP-1, 18 h): 486 nM
- IC50 (human IRAK4): 9.9 nM

SMILES: Cc1nsc2nc(Nc3cnn(C4CCOC4)c3)nc(N[C@H]3CC[C@H](N4CCOCC4)CC3)c12 (some centres unmarked) [WX007]
- Vd ([1]; Intravenous, 3 mg/kg): 3.3 L/kg
- AUC(0-t) ([1]; Intravenous, 3 mg/kg): 1.33 µM·h
- clearance ([1]; Intravenous, 3 mg/kg): 79 mL/min/kg
- half-life ([1]; Intravenous, 3 mg/kg): 54 min
- AUC(0-t) ([1]; Oral, 10 mg/kg): 1.64 µM·h
- bioavailability ([1]; Oral, 10 mg/kg): 38%
- Cmax ([1]; Oral, 10 mg/kg): 389 nM
- Tmax ([1]; Oral, 10 mg/kg): 2 h
- IC50 (THP-1 cells; Homo sapiens, THP-1, 18 h): 417 nM
- IC50 (human IRAK4): 5.7 nM

SMILES: Cc1nsc2nc(Nc3cnn(C4COC4)c3)nc(N[C@H]3CC[C@H](N4CCOCC4)CC3)c12 [WX009]
- Vd ([1]; Intravenous, 3 mg/kg): 5.7 L/kg
- AUC(0-t) ([1]; Intravenous, 3 mg/kg): 1.46 µM·h
- clearance ([1]; Intravenous, 3 mg/kg): 73.3 mL/min/kg
- half-life ([1]; Intravenous, 3 mg/kg): 108 min
- AUC(0-t) ([1]; Oral, 10 mg/kg): 2.69 µM·h
- bioavailability ([1]; Oral, 10 mg/kg): 58%
- Cmax ([1]; Oral, 10 mg/kg): 540 nM
- Tmax ([1]; Oral, 10 mg/kg): 2.5 h
- IC50 (THP-1 cells; Homo sapiens, THP-1, 18 h): 649 nM
- IC50 (human IRAK4): 21.3 nM

SMILES: Cc1nsc2nc(Nc3cnn(C[C@H]4COCCO4)c3)nc(N[C@H]3CC[C@H](N4CCOCC4)CC3)c12 [WX014]
- IC50 (THP-1 cells; Homo sapiens, THP-1, 18 h): 663 nM
- IC50 (human IRAK4): 30.3 nM

SMILES: COC(=O)N1CCN([C@H]2CC[C@H](Nc3nc(Nc4cnn(C5CCOCC5)c4)nc4snc(C)c34)CC2)CC1 [WX026]
- Vd ([1]; Intravenous, 3 mg/kg): 4.5 L/kg
- AUC(0-t) ([1]; Intravenous, 3 mg/kg): 1.77 µM·h
- clearance ([1]; Intravenous, 3 mg/kg): 50.6 mL/min/kg
- half-life ([1]; Intravenous, 3 mg/kg): 132 min
- AUC(0-t) ([1]; Oral, 10 mg/kg): 1.36 µM·h
- bioavailability ([1]; Oral, 10 mg/kg): 23%
- Cmax ([1]; Oral, 10 mg/kg): 308 nM
- Tmax ([1]; Oral, 10 mg/kg): 1.5 h
- IC50 (THP-1 cells; Homo sapiens, THP-1, 18 h): 156 nM
- IC50 (human IRAK4): 2 nM
- efficacy compared with dexamethasone DEX ([2]; DEX 0.5 mg/kg): equivalent
- inhibitory effect on LPS-induced TNF-α secretion ([2]; LPS 1 mg/kg i.p.): significant inhibitory effect

SMILES: CC(=O)N1CCN([C@H]2CC[C@H](Nc3nc(Nc4cnn(C5CCOCC5)c4)nc4snc(C)c34)CC2)CC1 [WX027]
- IC50 (THP-1 cells; Homo sapiens, THP-1, 18 h): 639 nM
- IC50 (human IRAK4): 3.3 nM

SMILES: Cc1nsc2nc(Nc3cnn(C4CCOCC4)c3)nc(N[C@H]3CC[C@H](N4CCN(C)CC4)CC3)c12 [WX030]
- IC50 (THP-1 cells; Homo sapiens, THP-1, 18 h): 308 nM
- IC50 (human IRAK4): 7.5 nM

Next, values leading:

- Vd ([1]; Intravenous, 3 mg/kg): 4.8 L/kg
- AUC(0-t) ([1]; Intravenous, 3 mg/kg): 1.33 µM·h
- clearance ([1]; Intravenous, 3 mg/kg): 71.4 mL/min/kg
- half-life ([1]; Intravenous, 3 mg/kg): 60 min
- AUC(0-t) ([1]; Oral, 10 mg/kg): 2.01 µM·h
- bioavailability ([1]; Oral, 10 mg/kg): 48%
- Cmax ([1]; Oral, 10 mg/kg): 523 nM
- Tmax ([1]; Oral, 10 mg/kg): 0.8 h
- IC50 (THP-1 cells; Homo sapiens, THP-1, 18 h): 329 nM
- IC50 (human IRAK4): 2.9 nM
SMILES: CC(C)c1nsc2nc(Nc3cnn(C4CCOCC4)c3)nc(N[C@H]3CC[C@H](N4CCOCC4)CC3)c12 [WX003]

- IC50 (THP-1 cells; 18 hours): 279 nM
- IC50 (human IRAK4): 27.2 nM
SMILES: Cc1nsc2nc(Nc3cnn(C4CCOC4)c3)nc(N[C@H]3CC[C@H](N4CCOCC4)CC3)c12 (some centres unmarked) [WX008]

- IC50 (THP-1 cells; Homo sapiens, THP-1, 18 h): 952 nM
- IC50 (human IRAK4): 20.5 nM
SMILES: Cc1nsc2nc(Nc3cnn(C[C@@H]4COCCO4)c3)nc(N[C@H]3CC[C@H](N4CCOCC4)CC3)c12 [WX015]

- IC50 (THP-1 cells; Homo sapiens, THP-1, 18 h): 234 nM
- IC50 (human IRAK4): 1.6 nM
SMILES: CCOC(=O)N1CCN([C@H]2CC[C@H](Nc3nc(Nc4cnn(C5CCOCC5)c4)nc4snc(C)c34)CC2)CC1 [WX028]
